Drawing on PubChem BioAssay (NCI), this text covers TGI and GI50 for 15 molecules.

Structures are written as SMILES. Values joined by “and” are separate entries in the source; they are usually repeats but may differ in a detail not shown here. Equal entries are not always repeated.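 Method: 48-hour compound exposure of cells in 96-well plates, five concentrations, linear interpolation of endpoints. At the GI50, growth is halved. TGI: total growth inhibition.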 Bounds are passed on as bounds.

Holding throughout (test): growth of human tumour cells (NCI), 48 h
For experiment [1], the system named is HOP-62 NSCLC.
The subject of experiment [2] is SNB-75 CNS.
In experiment [3] the test system is SK-MEL-28 melanoma.
Experiment [4] relates to HCC-2998 colon.
The subject of experiment [5] is UACC-62 melanoma.
Experiment [6] deals with IGROV1 ovarian.
Experiment [7] has as its system OVCAR-4 ovarian.
Experiment [8] concerns SK-MEL-5 melanoma.
The test system of experiment [9] is NCI-H522 lung.

For the molecule `C(CCC[Te][Te]CCCCCCOC1CCCCO1)CCOC1CCCCO1` (stereo unspecified), the TGI in [1] turned out to be 33.7 µM; in experiment [2], 33.7 µM; in experiment [3] it was 27.4 µM; in experiment [4], 27.9 µM; in [5], 23.6 µM; in experiment [6], 48 µM.

Regarding `CC(=O)OCCOCNC(=S)N/N=C(\C)c1cnc2ccccc2n1`, the TGI in [1], in experiment [2], in experiment [7], in [3], in experiment [8] and in experiment [4] was more than 100 µM throughout. For the same molecule, the results for the TGI in experiment [5], in experiment [9] and in experiment [6] were 39.7 µM, 76.7 µM and more than 100 µM, respectively.

Turning to `COc1ccc(C(N)=O)cc1N=NN(C)C`, the TGI in experiment [1], in experiment [2], in [7], in experiment [3], in experiment [8] and in [4] was more than 100 µM throughout. In addition, the TGI in [5], in [9] and in [6] was more than 100 µM throughout.

For the molecule `CCOC(=O)c1[nH]c(-c2ccc(Cl)cc2)cc1-c1cccnc1`, the GI50 in experiment [1] was 0.868 µM; in experiment [2], 0.738 µM; in experiment [7] it was 10.2 µM; in experiment [3], 0.982 µM; in experiment [8], 0.401 µM; in [4] it was 9.46 µM. Also, the GI50 was 0.843 µM in experiment [5] and 1.37 µM in experiment [6]. The TGI in experiment [1], in experiment [2], in experiment [7], in [3], in [8] and in experiment [4] was more than 100 µM each time. Besides, the TGI in experiment [5] and in [6] was more than 100 µM in each case.

For `CN(CN1C(=O)C2Cc3ccccc3CN2C1=O)c1ccccn1` (stereo unspecified), the TGI in experiment [1], in experiment [7], in experiment [3], in experiment [8], in experiment [4] and in experiment [5] was more than 100 µM each time. Besides, the TGI in experiment [9] and in experiment [6] was more than 100 µM each time.

Consider `C=C=C(CC)C(C(=O)OC)N(CC)CC` (stereo unspecified), for which the TGI in experiment [1], in [2], in [7], in [3], in experiment [8] and in experiment [5] was more than 100 µM in each case. The TGI in experiment [9] and in [6] was more than 100 µM in each case.

As to `COc1cccc(NC(=O)CC(=O)N2N=C(N(CCC#N)c3ccccc3C)CC2c2ccccc2)c1` (stereo unspecified), the TGI in experiment [1], in [2], in experiment [7], in experiment [3], in [8] and in [4] was more than 100 µM each time. Besides, the TGI in experiment [5], in [9] and in experiment [6] was more than 100 µM throughout.

With `Cn1c(=O)nc2n(-c3cccc(F)c3)c3ccccc3nc-2c1=O`, the TGI in experiment [1] is more than 100 µM; in [2], 78.5 µM; in experiment [7] it was 27.8 µM; in experiment [8], 27.3 µM; in experiment [4] it was 39.6 µM; in experiment [5], 13 µM. The TGI in [9] is 38.1 µM; in experiment [6], 62.5 µM.

In the case of `Cc1c(C(=O)c2ccccc2C(=O)O)c2ccccc2n1C`, the TGI in experiment [1], in [2], in experiment [7], in experiment [3], in [8] and in experiment [4] was more than 100 µM throughout. For the same molecule, the TGI in experiment [5] and in [6] was more than 100 µM in each case.

In the case of `O=C(O)/C(=C/c1c(O)ccc2ccccc12)c1csc(-c2nc(/C(=C\c3c(O)ccc4ccccc34)C(=O)O)cs2)n1`, the TGI in experiment [1] worked out at 22.2 µM; in experiment [2] it was 23.2 µM; in experiment [3], 32.1 µM; in experiment [8], 37.1 µM; in experiment [4] it was 32.4 µM; in experiment [5] it was 23.3 µM. For the same molecule, the TGI in [6] came out at 24.1 µM.

In the case of `CO/C1=C\C(C)=C\C(C)C(O)C(C)C/C(C)=C/C=C/C(OC)C(C(C)C(O)C(C)C2(O)CC(O)C(C)C(C(C)C)O2)OC1=O` (stereo unspecified), the TGI in [1] was 0.000847 µM; in experiment [7] it was 15.6 µM; in experiment [3] it was 23.5 µM; in experiment [8], 0.00177 µM; in [4] it was 12.2 µM; in [5] it was 0.00785 µM and 0.0254 µM. In experiment [6], the TGI was found to be 23.7 µM. Moreover, the GI50 in [2] was 0.0396 µM.

With `CCOC(=O)C1(Cc2ccccc2)CCCCCN1` (stereo unspecified), the TGI in [1] was more than 100 µM; in experiment [2], 92.6 µM; in experiment [7], more than 100 µM; in experiment [3], more than 100 µM; in experiment [4] it was more than 100 µM; in [5], more than 100 µM. The TGI in [6] is more than 100 µM.

In the case of `NC(=O)N/N=C/C(/C=N/NC(N)=O)[N+](=O)[O-]`, the TGI in [1], in experiment [2], in experiment [7], in [3], in experiment [5] and in experiment [9] was more than 100 µM throughout. This molecule also displayed a TGI in experiment [6] of more than 100 µM.

As for `O=c1cc2ccccc2nn1Cc1ccccc1Cl`, the TGI was more than 100 µM in experiment [1]; 93.8 µM in experiment [2]; more than 100 µM in experiment [7]; more than 100 µM in [3]; more than 100 µM in [8]; more than 100 µM in experiment [4]. In addition, the TGI in experiment [5] and in experiment [6] was more than 100 µM throughout.

Regarding `N=c1nnc(=O)c2c(s1)-n1ncc(C(=O)O)c1NN2`, the TGI in [1], in experiment [2], in experiment [7], in [3], in experiment [8] and in [5] was more than 100 µM each time. Besides, the TGI in [9] and in experiment [6] was more than 100 µM each time.
